Results taken from patent publication US9429582B2, “Tyrosine-phosphorylated WBP2, a novel cancer target and biomarker” (National University of Singapore, priority 2010, dated 2016).
“Also recorded” adds a separate entry of the source.

Tests used:
[1] = tested on: WBP2-Y192-231E mutant-expressing MCF7; test: Cell proliferation (MTS / cell numbers) of WBP2-Y192-231E mutant-expressing MCF7; assay type: cell-based, human
Experimental: A: Whole cell lysates from vector, WBP2-WT, WBP2-Y192-231E mutant and WBP2-Y192-231F mutant expressing MCF7 or Y192-231E mutant expressing MCF7 with WBP2 knockdown were used for IB analysis with antibodies indicated. B: Vector, WBP2-WT, WBP2-Y192-231E mutant or WBP2-Y192-231F mutant-expressing MCF7 were co-transfected with TOPFlash (top panel) or ERE-Luciferase (bottom panel) reporter construct. For cells co-transfected ERE-luciferase, they were either left alone or stimulated with 50 ng/ml Wnt3a ligand for 16 hrs. TCF/ERα luciferase activities in various conditions were then assayed. **P<0.01, ***P<0.001, Student's t-test (2-tailed). C: Vector or WBP2-Y192-231E mutant-expressing MCF7 were treated with indicated concentrations of Tamoxifen(Tam) and/or FH535. Cell numbers were measured. D: Whole cell lysates from WBP2-Y192-231E mutant-expressing MCF7 treated with 2 μM Tam and/or 15 μM FH5353 were harvested at day 2-4 post-treatment and used for IB analysis with antibodies indicated.
Effect of knockdown of E2F1 and E2F3 on MCF7 cells overexpressing WBP2-Y192-231E. A. MCF7 cells expressing WBP2-Y192-231E were transfected with indicated siRNAs and knockdown efficiency was confirmed using western blotting. B. Cells were co-transfected with indicated siRNAs and E2F reporter plasmid and harvested for luciferase assay after 48 hours. Luciferase readings were normalized against constitutive TK promoter renilla luciferase readings. C. Cells were transfected with indicated siRNAs and BrdU incorporation assay was performed. Percentages of BrdU positive cells relative to control siRNA treated cells were plotted as bar charts. D. Cells were transfected with indicated siRNAs. MTS assay was performed on day 3. Percentages of cell proliferation relative to control siRNA treated cells were plotted as bar charts.
Whole cell lysates from vector, WBP2-WT, WBP2-Y192-231E mutant and WBP2-Y192-231F mutant expressing MCF7 (A) or Y192-231E mutant expressing MCF7 with WBP2 knockdown (B) were used for IB analysis with antibodies indicated. Their expression levels were quantified in three independent experiments and the averages were presented relative to actin. Representative blots (order in lanes from left to right: vector, WBP2, Y192-231E, Y192F) were presented as insets to the bar graphs. **P<0.01, ***P<0.001, Student's t-test (2-tailed) relative to vector. Vector, WBP2-WT, WBP2-Y192-231E mutant or WBP2-Y192-231F mutant-expressing MCF7 were cotransfected with TOPFlash(C) or ERE-Luciferase(D) reporter construct. For cells co-transfected ERE luciferase, they were either left alone or stimulated with 50 ng/ml Wnt3a ligand for 16 hrs. TCF(C)/ER[…](D) luciferase activities in various conditions were then assayed and analyzed in relative to untreated vector control. **P<0.01, ***P<0.001, Student's t-test (2-tailed). E: Vector or WBP2-Y192-231E mutant-expressing MCF7 were treated with indicated concentrations of 2 µM tamoxifen (Tam) and/or 15 µM FH535 for 4 days. Cell numbers were measured daily and compared in relative to vehicle treated vector-expressing cells on Day 0. F: Vector or WBP2-Y192-231E mutant-expressing MCF7 were treated with indicated concentrations (0-50 µM) of FH535 for 2 days. Cell numbers were measured and compared in relative to vehicle-treated cells. Their […] were analyzed statistically with SPSS 13.0. G: Whole cell lysates from WBP2-Y192-231E mutant-expressing MCF7 treated with 2 μM Tam and/or 15 μM FH5353 were harvested at day 2-4 post-treatment and used for IB analysis with antibodies indicated. H: Vector or WBP2-Y192-231E mutant-expressing MCF7 were treated with indicated concentrations of 100 nM fulvestrant and/or 15 µM FH535 for 4 days. Cell numbers were measured on day 2 and day 4 and compared in relative to vehicle-treated control at each day (Top Panel). These treated cells were harvested for IB analysis with antibodies indicated (Bottom Panel). […]

ERα = test: Immunoblot of ERα expression in drug-treated WBP2-Y192-231E mutant-expressing MCF7; assay type: cell-based, human; settings: Y192-231E-expressing MCF7; 2 μM Tam and/or 15 μM FH535; day 2-4 post-treatment
Experimental: For cells co-transfected ERE-luciferase, they were either left alone or stimulated with 50 ng/ml Wnt3a ligand for 16 hrs. TCF/ERα luciferase activities in various conditions were then assayed. **P<0.01, ***P<0.001, Student's t-test (2-tailed). […] Cell numbers were measured.
Their expression levels were quantified in three independent experiments and the averages were presented relative to actin. […] For cells co-transfected ERE luciferase, they were either left alone or stimulated with 50 ng/ml Wnt3a ligand for 16 hrs. TCF(C)/ER[…](D) luciferase activities in various conditions were then assayed and analyzed in relative to untreated vector control. **P<0.01, ***P<0.001, Student's t-test (2-tailed). […] Cell numbers were measured daily and compared in relative to vehicle treated vector-expressing cells on Day 0. […] Cell numbers were measured and compared in relative to vehicle-treated cells. […] Cell numbers were measured on day 2 and day 4 and compared in relative to vehicle-treated control at each day (Top Panel). These treated cells were harvested for IB analysis with antibodies indicated (Bottom Panel).
First, we exposed WBP2 phospho-mimic expressing MCF7 cells to serial concentrations of fulvestrant (0.1 nM, 1 nM, 10 nM, 100 nM and 1 μM) and probed for ERα expression to determine the effective working concentration. […] Next, we compared the growth and proliferation of WBP2 phospho-mimic mutant expressing MCF7 in the presence of 100 nM fulvestrant or 15 μM FH535.

For `Cc1cc([N+](=O)[O-])ccc1NS(=O)(=O)c1cc(Cl)ccc1Cl` [FH535], the “blocking of phospho-WBP2-mediated cancer cell growth compared with tamoxifen and fulvestrant” value [1] was “more pronouncedly”, the “sensitivity of Y192-231E-expressing MCF7 to FH535-mediated growth inhibition compared with vector-expressing MCF7” value ([1]; 0-50 μM FH535 for 2 days) was “more sensitive” and the “inhibition of growth / reduction of proliferation” value ([1]; MCF7 cells expressing Y192-231E mutant, day 4, 100 nM fulvestrant or 15 μM FH535) was roughly 65%. For the same molecule, the “growth inhibition, dose dependence” value ([1]; Y192-231E stable transfectant, 0-50 μM FH535 for 2 days) was “dose dependent growth inhibition”, the growth rate ([1]; Y192-231E-expressing MCF7, FH535 alone (15 μM), to close to vector-expressing MCF7 at day 3) was “significantly reduced” and the ERα expression (ERα) was “significantly reduced; also recorded: reducing”.
